From US20050074485A1, “Anti-inflammatory/anti-microbial peptides for use in dialysis” (priority 2003, published 2005)
“Also recorded” adds a separate entry of the source. Where a SMILES comes first, the peptide text is derived from it. Bridges are numbered along the chain shown (N, C = ends). Roman numbers before positions name the chains, in order. Where no end group is shown, it is not given here. [ ]: non-standard residue; d: D form.

How the values were obtained:
[1] = cited from earlier work; for antipyretic potency relative to α-MSH (11-13): centrally administered, rabbit, Deeter et al. 1989
[2] = tested on: Streptococcus pyogenes Group A (ATCC 19615); assay: Broth dilution turbidity test of growth inhibition; assay type: cell-based
Protocol: (§1) These organisms were subcultured onto blood agar plates and incubated for 16-24 hours at 35±2° C. An inoculated needle or loop was touched to each of four or five well isolated colonies of the same morphological type, and the inoculum inoculated into 5 mL of MHB.
(§2) The broth cultures were then allowed to incubate at 35±2° C. until turbidity appeared (usually 2 to 5 hours). […] This turbidity is half the density of a McFarland number one standard and is often referred to as McFarland 0.5 standard (approx. 1.5×10^8 CFU/mL). This turbidity standard was agitated on a vortex mixer immediately before use. Sealed tubes were stored in the dark at room temperature and replaced if the inocula are shown (by count) to be aberrant.
(§3) The broth culture was further diluted to 1:200 in MHB broth (to obtain a final concentration of 10^5 to 10^6 CFU/mL). To determine the initial concentration of the organism in the above solution, serial dilutions were performed 1:10 in MHB four times to achieve a final dilution of 10^−4. Aliquots 1.0 mL from each of the dilutions were placed in duplicate into sterile petri dishes. Approximately 15 to 20 mL of tempered (45±2° C.) MCTA agar media was added. The plates were incubated overnight at 35±2° C. for 16-20 hours. Following the incubation period, the colonies were counted.
(§4) These dilutions were developed according to the procedure: for each drug substance label 9 flasks (10 ml Volumetric) 1 through 9; for each sample add 3 mL of deionized (“DI”) water to a 10 mL volumetric flask; then transfer the amount of anti-microbial and anti-inflammatory peptides as specified below in Table 2; record the actual amount transferred in the laboratory notebook; and add the remaining amount of DI water to bring up to volume of 10 mL.
(§5) 100 μL of the anti-microbial and anti-inflammatory peptide solution from each of the flasks was then added to the correspondingly labeled well; to well number 10 add 100 μL sterile DI Water; and to all ten wells add 100 μL of inoculum created previously.
(§6) The procedure was repeated for each of the seven microorganisms tested.
(§7) Each well was tested for turbidity, as an indicator of growth.

[3] = tested on: Enterococcus faecalis (MDR) (ATCC 51299); assay: Broth dilution turbidity test of growth inhibition; assay type: cell-based
Protocol: as §1, §2, §3, §4, §5, §6, §7

[4] = tested on: Candida albicans (ATCC 10231); assay: Broth dilution turbidity test of growth inhibition; assay type: cell-based; conditions: turbidity after 16-20 hours at 35±2° C.
Protocol: as §1, §2, §3, §4, §5, §6, §7

[5] = tested on: Staphylococcus epidermidis (ATCC 12228); assay: Broth dilution turbidity test of growth inhibition; assay type: cell-based
Protocol: The following microorganisms were used in the Example: Candida albicans (ATCC 10231); Enterococcus faecalis (MDR) (ATCC 51299); Escherichia coli (ATCC 11229); Pseudomonas aeruginosa (ATCC 9027); Staphylococcus aureus (ATCC 6538); Staphylococcus epidermidis (ATCC 12228); and Streptococcus pyogenes Group A (ATCC 19615). These organisms were subcultured onto blood agar plates and incubated for 16-24 hours at 35±2° C. An inoculated needle or loop was touched to each of four or five well isolated colonies of the same morphological type, and the inoculum inoculated into 5 mL of MHB.
as §2
The broth culture was further diluted to 1:200 in MHB broth (to obtain a final concentration of 10^5 to 10^6 CFU/mL). To determine the initial concentration of the organism in the above solution, serial dilutions were performed 1:10 in MHB four times to achieve a final dilution of 10^−4. […] Following the incubation period, the colonies were counted. […]

[6] = tested on: C. albicans (clinical isolate); assay: C. albicans viability by colony forming units; assay type: cell-based, Candida albicans; conditions: 10^−6 M
Protocol: C. albicans (clinical isolate) were obtained from the collection of the Department of Microbiology, Ospedale Maggiore di Milano. C. albicans were maintained on Sabouraud's agar slants and periodically transferred to Sabouraud's agar plates and incubated for 48 hours at 28° C. To prepare stationary growth phase yeast, a colony was taken from the agar plate and transferred into 30 ml Sabouraud-dextrose broth and incubated for 72 hours at 32° C. Cells were centrifuged at 100×g for 10 minutes and the pellet was washed twice with distilled water. Cells were counted and suspended in Hank's balanced salt solution (“HBSS”) to the desired concentration. […] C. albicans (I×10^6/ml in HBSS) was incubated in the presence or absence of α-MSH [1-13], KPV, (SEQ. ID NO.1) or the (“KPV dimer”) at concentrations in the range of 10^−15 to 10^−4M for 2 hours at 37° C. Cells were then washed in cold distilled water and diluted with HBSS to a concentration of 100 organisms/ml. One ml aliquots were dispensed on blood agar plates and incubated for 48 hours at 37° C. Organism viability was estimated from the number of colonies formed.
Fluconazole is a well established antifungal agent. […] The peptides and fluconazole were tested in concentrations of 10^−6 M. There were at least six replicates for each concentration of peptide.

[7] = Hiltz et al. 1991; cited from earlier work
[8] = in vivo
[9] = in vivo; remark: listed apart in the source
[10] = tested on: S. aureus; assay: Urokinase-induced growth enhancement of S. aureus; assay type: cell-based, Staphylococcus aureus; conditions: 10^−6 M, recombinant human urokinase 500 U, four hours at 37° C.
Protocol: In this experiment, the influence of α-MSH on urokinase-induced growth-enhancement is determined. […] (SEQ. ID NO.1) at 10^−6 M. Appropriate dilutions of S. aureus were dispensed on agar plates and colonies counted after 24 hours incubation at 37° C.

[11] = tested on: Staphylococcus aureus (ATCC29213); assay: S. aureus viability by colony forming units; assay type: cell-based; conditions: 10^−15 to 10^−4M, 2 hours at 37° C.
Protocol: Staphylococcus aureus (ATCC29213) was obtained from the collection of the Department of Microbiology, Ospedale Maggiore di Milano. S. aureus (1×10^6/ml in HBSS) was incubated in the presence or absence of α-MSH [1-13] (SEQ ID NO: 6), α-MSH [11-13] (SEQ. ID NO. 1) or the KPV dimer (SEQ ID NO: 4) at concentrations in the range of 10^−15 to 10^−4M for 2 hours at 37° C. S. aureus were then washed in cold distilled water and diluted with HBSS to a concentration of 100 organisms/ml. One ml aliquots were dispensed on blood agar plates and incubated for 24 hours at 37° C. Organism viability was estimated from the number of colony forming units.

[12] = tested on: HIV-1 infected promonocytic UI cell line; assay: HIV-p24 release from TNF-α stimulated UI cells (ELISA); assay type: cell-based; conditions: 48 hr
[13] = tested on: HIV transcription; conditions: 10^−5M; PMA (1 ng/mL) stimulated UI cells, 24 h
Excerpt: Total RNA was extracted by the guanidine thiocyanate phenol method using an RNA isolation kit (Tripure, Boehringer Mannheim, Indianapolis, Ind.), following the manufacturer's instructions. Ten ng of total RNA were separated by 0.8% agarose/formaldehyde gel electrophoresis and transferred onto nylon membrane. The filters were baked and hybridized for 18 hr with ^32P-labeled HIV-full length probe (kind gift of L. Turchetto and E. Vicenzi, S. Raffaele Hospital, Milan, Italy). The radiolabeling reaction was performed using a DNA labeling kit (Ready-to-go, Pharmacia Biotech, San Francisco, Calif.). Filters were washed and exposed to X-ray film for 5 days. The labeled probe was removed by washing at 80° C. in 0.1×SSC containing 0.1% sodium dodecyl sulphate and then rehybridized with (^32P-labeled glyceraldehyde-3-phosphate dehydrogenase) (GAPDH) cDNA probe. Densitometric analysis was performed using ImageMaster VDS 3.0 software (Pharmacia Biotech) and results were expressed as density units.

[14] = turbidity after 16-20 hours at 35±2° C.

## 8-13 sequence: α-MSH fragment 8-13 (RWGKPV; ends and bridges not checked; UniProt P01189 145-150, looked up, fragment)
[1]
  antipyretic potency relative to α-MSH (11-13): greater than that of the 11-13 sequence

## SYSMEHdFRWGKPV (SYSMEH[dF]RWGKPV; ends and bridges not checked) [Phe7]
[2]
  effectiveness against the organism (in words): effective
[2]; [14]
  minimal effective concentration that completely inhibited growth: 10^−4 M
[3]
  effectiveness against the organism (in words): effective
[3]; [14]
  minimal effective concentration that completely inhibited growth: 10^−3 M
[4]
  minimal effective concentration that completely inhibited growth: 10^−3 M
[5]
  effectiveness against the organism (in words): very effective
[5]; [14]
  minimal effective concentration that completely inhibited growth: 10^−4 M

## Met-Glu-His-Phe-Arg-Trp-Gly (EHFRWG; listed as Homo sapiens) [α-MSH [4-10], reference compound]
[6]
  inhibition of C. albicans CFU: approximately 50%

## [dK11] α-MSH (11-13)
[7]
  anti-inflammatory potency relative to L-form tripeptide α-MSH 11-13: same general potency as the L-form

## 10-13 sequence: α-MSH fragment formed by addition of glycine to α-MSH (11-13) (GKPV; ends and bridges not checked; UniProt P01189 147-150, looked up, fragment)
[1]
  antipyretic potency relative to α-MSH (11-13): slightly decreased potency

## CC(=O)N[C@@H](CSSC[C@H](NC(C)=O)C(=O)N[C@@H](CCCCN)C(=O)N1CCC[C@H]1C(=O)N[C@H](C(N)=O)C(C)C)C(=O)N[C@@H](CCCCN)C(=O)N1CCC[C@H]1C(=O)N[C@H](C(N)=O)C(C)C [KPV dimer, Val-Pro-Lys-AcCys-s-s-CysAc-Lys-Pro-Val] (I: Ac-CKPV-NH2 / II: Ac-CKPV-NH2; disulfide I:1-II:1)
[8]
  safety and tolerability: remarkable safety of and tolerability
[9]
  negative side effects: without negative side effects

## ACTH (1-39): adrenocorticotropic hormone (SYSMEHFRWGKPVGKKRRPVKVYPAKEDDEASEAFPLEF; listed as Homo sapiens) [reference compound]
[6]
  reduction of C. albicans viability in comparison with fluconazole: did not reduce C. albicans viability

## ACTH fragment (18-39): ACTH fragment (18-39) (PVKVYPAKEDDEASEAFPLEF; listed as Homo sapiens) [reference compound]
[6]
  reduction of C. albicans viability in comparison with fluconazole: did not reduce C. albicans viability

## [Nle4 dPhe7]α-MSH [NDP]
[4]
  minimal effective concentration that completely inhibited growth: 10^−3 M
[1]; Holdeman and Lipton 1985
  potency in reducing fever relative to the parent peptide: approximately ten times more potent than the parent peptide

## SYSMEHFRWGKPV [α-MSH [1-13]]
[10]
  urokinase-enhanced S. aureus colony formation: significantly inhibited this urokinase-enhancing effect
[10]; listed as α-MSH
  urokinase-enhanced S. aureus colony formation: significantly inhibited the enhancing effect of urokinase
[11]
  S. aureus colony formation (CFU): inhibited S. aureus colony formation
[6]
  reduction of C. albicans viability in comparison with fluconazole: most effective
[12]; 10^−5 M, TNF-α (10 ng/mL) stimulated UI cells
  inhibition of p24 release: 52.7%
[12]; 10^−13 to 10^−4 M
  p24 release from TNF-α stimulated UI cells (in words): significantly inhibited p24 release

## HFRWGKPV (listed as Homo sapiens) [α-MSH [6-13]]
[6]
  reduction of C. albicans viability in comparison with fluconazole: most effective

## Lysine-Proline-Valine [KPV]
[13]
  reduction of spliced and unspliced HIV-1 RNA: approximately 50%
[10]
  urokinase-enhanced S. aureus colony formation: significantly inhibited the enhancing effect of urokinase; also recorded: significantly inhibited this urokinase-enhancing effect
[2]
  effectiveness against the organism (in words): effective
[3]
  effectiveness against the organism (in words): effective
[11]
  S. aureus colony formation (CFU): inhibited S. aureus colony formation
[6]
  reduction of C. albicans viability in comparison with fluconazole: most effective

## 9-13 sequence: α-MSH fragment 9-13 (WGKPV; ends and bridges not checked; UniProt P01189 146-150, looked up, fragment)
[1]
  antipyretic potency relative to α-MSH (11-13): almost devoid of activity
